According to patent publication US7253175B2, “Method for treating athlete's foot” (priority 2003, dated 2007):
Where a name gives a salt, the structure may show the parent alone.

Test system: athlete's foot (fungal infection of toe nails and skin of the feet)
Assay: Treatment of a patient with athlete's foot (case example)
Format: in vivo, human
From the text: Fungal infections, including tineapedis (fungal infections on the feet), tineamanus (fungal infections on the hands) and tineacorporis (fungal infections on the body), are diagnosed by methods or tests commonly conducted by a person of ordinary skill in the art. The common symptoms of such disease are described above. In the case of fungal infection on nails such as finger nails and toenails, the infected areas usually show thickening of the nails with white spots, while if the skin is infected, itching scaling, redness and/or blisters will appear. A laboratory test may be conducted by culturing a skin sample or nail sample in the infected area in an appropriate medium to observe the growth of fungi. The infections may also be identified by scraping the infected skin or nail and examining the such specimen under a microscope in the presence of potassium hydroxide, which assists to determine the presence of fungi.
A patient suffered from athlete's foot for four years. The patients toe nails had became whitening, thickening and cracking due to the infection. […] The patient was reported to experienced pain due to the thickening and cracking of the toe nails the swelling of the skin. […]

CC(C)[C@H](N)C(=O)OCCOCn1cnc2c(=O)[nH]c(N)nc21 [Valtrex, L-valine, 2-[(2-amino-1,6-dihydro-6-oxo-9H-purin-9-yl)methoxy]ethyl ester, monhydrochloride]
laboratory test for fungal infections on the patient's toe nails and skin (after daily dosage of three grams divided into three times for seven days): no longer fungal infections
symptoms of the patient's athlete's foot at the end of treatment (patient, about 230 pounds, daily dosage of three grams divided into three times for seven days): completely disappear
